Earlier results, collected in patent US20170335399A1, “DETECTION OF MINERALOCORTICOID RECEPTOR ACTIVATION AND PERSONALIZED ANTIHYPERTENSIVE THERAPY BASED THEREON” (The Regents of University of Michigan, priority 2014, published 2017).

What was measured:
[1] = molecular target: T1, mineralocorticoid receptor (MR) (Homo sapiens, UniProt P08235); details: resistant hypertension patients; ASPIRANT trial; placebo-corrected mean
T1 construct: host or cells: patients with resistant hypertension (in vivo)
T1 sequence (P08235 1-984): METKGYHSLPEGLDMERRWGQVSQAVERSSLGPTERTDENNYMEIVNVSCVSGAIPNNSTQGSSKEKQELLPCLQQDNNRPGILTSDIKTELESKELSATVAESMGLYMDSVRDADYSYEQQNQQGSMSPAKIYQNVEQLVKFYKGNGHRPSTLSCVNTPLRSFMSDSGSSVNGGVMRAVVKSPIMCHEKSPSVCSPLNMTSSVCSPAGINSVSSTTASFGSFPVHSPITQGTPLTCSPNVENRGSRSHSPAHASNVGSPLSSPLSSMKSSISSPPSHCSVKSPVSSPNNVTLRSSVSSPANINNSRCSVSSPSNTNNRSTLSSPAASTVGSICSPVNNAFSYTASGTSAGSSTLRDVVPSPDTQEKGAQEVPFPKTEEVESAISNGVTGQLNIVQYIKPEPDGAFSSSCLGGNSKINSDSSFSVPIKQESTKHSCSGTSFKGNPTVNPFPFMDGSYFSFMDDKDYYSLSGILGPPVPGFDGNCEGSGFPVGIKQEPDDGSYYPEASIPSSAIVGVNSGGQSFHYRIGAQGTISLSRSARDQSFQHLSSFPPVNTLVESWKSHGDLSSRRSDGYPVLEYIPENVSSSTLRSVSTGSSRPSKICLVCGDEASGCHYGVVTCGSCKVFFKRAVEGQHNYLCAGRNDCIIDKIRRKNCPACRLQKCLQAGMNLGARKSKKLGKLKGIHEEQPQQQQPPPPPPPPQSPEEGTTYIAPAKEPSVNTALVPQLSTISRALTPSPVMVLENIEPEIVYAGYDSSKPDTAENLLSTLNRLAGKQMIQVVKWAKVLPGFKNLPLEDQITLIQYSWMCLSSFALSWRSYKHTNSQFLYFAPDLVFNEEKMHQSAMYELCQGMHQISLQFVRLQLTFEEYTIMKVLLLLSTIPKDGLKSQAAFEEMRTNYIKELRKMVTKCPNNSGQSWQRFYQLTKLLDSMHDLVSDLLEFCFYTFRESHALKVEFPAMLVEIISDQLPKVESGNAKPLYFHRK

[2] = system: ENaC; details: patients treated with spironolactone
[3] = molecular target: T1, mineralocorticoid receptor (MR); details: resistant hypertension; after addition of spironolactone; other studies

CC(=O)S[C@@H]1CC2=CC(=O)CC[C@]2(C)[C@H]2CC[C@@]3(C)[C@@H](CC[C@@]34CCC(=O)O4)[C@H]12 [spironolactone]
mean reduction of 24-hour systolic blood pressure more than placebo [1]: 9.8 mm Hg
ENaC expression on peripheral blood mononuclear cells [2]: decreased
mean reductions in systolic blood pressure [3]: 16-26 mm Hg
